# Assay results as given in patent US20240067651A1 (Biohaven Therapeutics Ltd., priority 2019, published 2024).
# Columns and labels:
# Plasma Stability = assay type: in vitro ADME, human
# Protocol: Plasma stability estimates the ability of a compound to remain intact in the blood. For prodrugs that are intended to be hydrolyzed by plasma enzymes a certain level of instability in plasma indicates the compound is probably breaking down to the parent drug. A stability range of 25-75% remaining parent compound after 1 hour in plasma indicates the compound is likely breaking down to the parent drug molecule and a patient will be exposed to this parent molecule.
# Assessment of plasma stability was carried out by individual incubations of drug candidates in fresh human plasma at a concentration of 1 μM for 1 hour at 37° C. After which, the samples were de-proteinized by addition of 2 volumes of acetonitrile containing 0.1% formic acid and internal standard, vortex mixed for 2 minutes and centrifuged at 4,000 rpm for 10 minutes to pellet precipitated protein. The resulting supernatant containing the drug candidates was diluted 5-fold with water containing 0.1% formic acid and submitted to LCMS/MS analysis. All determinations were done in triplicate. Plasma stability was expressed as percent of control remaining.
# See Pelletier et al. ACS Med. Chem. Lett. 2018, 9, 752-756.
# [1] = Stability in Simulated Gastric Fluid (SGF); assay type: in vitro ADME; design: key: % parent compound remaining relative to 0-minute sample
# Protocol: (§1) Simulated gastric fluid (SGF) and Simulated intestinal fluid (SIF) stability are in vitro metrics indicating the ability of a compound to pass through the gastrointestinal tract […] or completely digested. An undigested or nearly undigested compound will usually survive gut transit long enough to be absorbed into the systemic circulation. Greater than 50% remaining intact compound at 1 hour indicates a relatively stable molecule that will likely be absorbed in the gut.
# (§2) For each test compound, samples at a final concentration of 2 μg/mL are prepared in respective blank simulated gastric fluid with pepsin (pH 1.2) and simulated intestinal fluid with pancreatin (pH 6.8). All samples are incubated at 37° C. on a 150-rpm orbital shaker, and an aliquot is removed at predetermined time points (0 to 60 minutes). Samples are precipitated with three volumes of acetonitrile containing propranolol as internal standard, and centrifuged for 10 min at 2,000 g before LC-MS/MS analysis of the supernatant solutions. Percent parent compound remaining is determined relative to 0-minute incubation samples. If a sufficient number of time points are available, the degradation half-life is calculated based on the natural log of % compound remaining vs. time plot.
# [2] = Stability in Simulated Intestinal Fluid (SIF); assay type: in vitro ADME; design: key: % parent compound remaining relative to 0-minute sample
# Protocol: as §1, §2
# [3] = % remaining at 1 h, human plasma, 1 μM, 37° C.
# [4] = % remaining at 1 h, SGF with pepsin pH 1.2, 2 μg/mL, 37° C.
# [5] = % remaining at 1 h, SIF with pancreatin pH 6.8, 2 μg/mL, 37° C.
# [6] = % remaining at 1 h in human plasma, the 15th table
# [7] = % remaining at 1 h in simulated gastric fluid, the 15th table
# [8] = % remaining at 1 h in simulated intestinal fluid, the 15th table
# [9] = bare number, unit or time not given, the 15th table Examples 204-207
# [10] = simulated gastric fluid, at 1 h
# [11] = simulated intestinal fluid, at 1 h
Compound,human Plasma stability (Plasma Stability; [3]),"SGF [1, 4]","SIF [2, 5]",also measured
"CC(C)OCCn1c(=S)[nH]c(=O)c2c1ccn2C[C@]1(C(=O)O)CCCN1C(=O)OC(C)(C)C.O=C(O)C(F)(F)F [Example 2, trifluoroacetic acid 1-tert-butyl 2-{4-oxo-1-[2-(propan-2-yloxy)ethyl]-2-sulfanylidene-1H,2H,3H,4H,5H-pyrrolo [3,2-d]pyrimidin-5-yl}methyl(2S)-pyrrolidine-1,2-dicarboxylate]",73%,–,–,–
"CC(C)OCCn1c(=S)n2c(=O)c3c1ccn3COC(=O)CCCCCCC(=O)OC2 [Example 134, 16-[2-(Propan-2-yloxy)ethyl]-15-sulfanylidene-3,12-dioxa-1,14,16-triazatricyclo[12.5.2.0^{17,20}]henicosa-17(20),18-diene-4,11,21-trione]",1%,99%,1%,–
"CC(C)OCCn1c2nc(=O)c3c1ccn3COC(=O)CCCCCCC(=O)OCS2 [Example 135, 22-[2-(Propan-2-yloxy)ethyl]-6,15-dioxa-17-thia-4,19,22-triazatricyclo[16.3.1.0^{4,21}]docosa-1(21),2,18-triene-7,14,20-trione]",67%,86%,67%,–
"CC(C)OCCn1c(=S)[nH]c(=O)c2c1ccn2COC(=O)CCCCCCC(=O)OCn1ccc2c1c(=O)[nH]c(=S)n2CCOC(C)C [Example 136, 1,8-Bis({4-oxo-1-[2-(propan-2-yloxy)ethyl]-2-sulfanylidene-1H,2H,3H,4H,5H-pyrrolo[3,2-d]pyrimidin-5-yl}methyl) octanedioate]",2%,77%,2%,–
"CC(C)OCCn1c2nc(=O)c3c1ccn3COC(=O)CCC(=O)N1CCC(CC1)C(=O)OCS2 [Example 138, 25-[2-(propan-2-yloxy)ethyl]-3,15-dioxa-5-thia-7,13,20,25-tetraazatetra-cyclo[18.2.2.1^{6,10}.0^{9,13}]penta-cosa-6,9,11-triene-2,8,16,19-tetrone]",66% remaining,100% remaining,98% remaining,–
"CC(C)OCCn1c(=S)n(COC(=O)C2CCNCC2)c(=O)c2c1ccn2COC(=O)CCC(=O)O.O=C(O)C(F)(F)F [Example 139, 4-oxo-4-({4-oxo-3-[(piperidine-4-carbonyloxy)methyl]-1-[2-(propan-2-yloxy)ethyl]-2-sulfanylidene-1H,2H,3H,4H,5H-pyrrolo[3,2-d]pyrimidin-5-yl}methoxy)butanoic acid; trifluoroacetic acid]",8% remaining,99% remaining,98% remaining,–
"CC(C)OCCn1c(=S)n2c(=O)c3c1ccn3COC(=O)CCC(=O)N1CCC(CC1)C(=O)OC2 [Example 140, 19-[2-(propan-2-yloxy)ethyl]-20-sulfanylidene-3,13-dioxa-1,8,15,19-tetraazatetra-cyclo[13.5.2.2^{5,8}.0^{18,22}]tetra-cosa-16,18(22)-diene-4,9,12,21-tetrone]",10% remaining,99% remaining,79% remaining,–
CCCNC(=O)OCSc1nc(=O)c2[nH]ccc2n1CCOC(C)C [Example 182],–,–,–,"human Plasma stability (Plasma Stability; [6]): 94% @ 1 h; SGF [1, 7]: 81% @ 1 h; SIF [2, 8]: 69% @ 1 h"
CCCNC(=O)OCSc1nc(=O)c2c(ccn2C(=O)NCCC)n1CCOC(C)C [Example 184],–,–,–,"human Plasma stability (Plasma Stability; [6]): 95% @ 1 h; SGF [1, 7]: 99% @ 1 h; SIF [2, 8]: 86% @ 1 h"
CCOC(=O)OCSc1nc(=O)c2[nH]ccc2n1CCOC(C)C [Example 201],–,–,–,"human Plasma stability (Plasma Stability; [6]): 0% remaining; SGF [1, 7]: 100% remaining; SIF [2, 8]: 43% remaining"
CCOC(=O)OCSc1nc(=O)c2c(ccn2CSc2nc(=O)c3[nH]ccc3n2CCOC(C)C)n1CCOC(C)C [Example 202],–,–,–,"human Plasma stability (Plasma Stability; [6]): 3% remaining; SGF [1, 7]: 45% remaining; SIF [2, 8]: 52% remaining"
CC(C)OCCn1c(SCOC(=O)Oc2ccccc2)nc(=O)c2[nH]ccc21 [Example 205],–,–,–,"human Plasma stability (Plasma Stability; [6]): 2% remaining; SGF [1, 9]: 61; SIF [2, 9]: 10"
CCCCCCCOC(=O)OCSc1nc(=O)c2c(ccn2COC(=O)OCCCCCCC)n1CCOC(C)C [Example 220],–,–,–,"human Plasma stability (Plasma Stability; % remaining at 1 h in human plasma, the 17th table): 55% remaining; SGF ([1]; % remaining at 1 h in simulated gastric fluid, the 17th table): 77% remaining; SIF ([2]; % remaining at 1 h in simulated intestinal fluid, the 17th table): 5% remaining"
CC(C)OCCn1c(=S)[nH]c(=O)c2c1ccn2COC(=O)N(C)c1ccccc1Cl [Example 250],–,–,–,"human Plasma stability (Plasma Stability; human plasma, at 1 h): 100% remaining; SGF [1, 10]: 99% remaining; SIF [2, 11]: 93% remaining"
Cc1ccccc1N(C)C(=O)OCn1ccc2c1c(=O)[nH]c(=S)n2CCOC(C)C [Example 251],–,–,–,"human Plasma stability (Plasma Stability; human plasma, at 1 h): 96% remaining; SGF [1, 10]: 99% remaining; SIF [2, 11]: 100% remaining"
Cc1cccc(N(C)C(=O)OCn2ccc3c2c(=O)[nH]c(=S)n3CCOC(C)C)c1 [Example 252],–,–,–,"human Plasma stability (Plasma Stability; human plasma, at 1 h): 100% remaining; SGF [1, 10]: 100% remaining; SIF [2, 11]: 80% remaining"

# Continued, in another order:
human Plasma stability (Plasma Stability; [3]),"SGF [1, 4]","SIF [2, 5]",Compound,also measured
97%,37%,97%,"COc1ccc(CSc2nc(=O)c3[nH]ccc3n2CCOC(C)C)cc1 [Example 74, 2-{[(4-Methoxyphenyl)methyl]sulfanyl}-1-[2-(propan-2-yloxy)ethyl]-1H,4H,5H-pyrrolo[3,2-d]pyrimidin-4-one]",–
100%,99%,91%,"Cc1ccc(S(=O)(=O)n2ccc3c2c(=O)[nH]c(=S)n3CCOC(C)C)cc1C [Example 75, 5-(3,4-Dimethylbenzenesulfonyl)-1-[2-(propan-2-yloxy)ethyl]-2-sulfanyl-1H,4H,5H-pyrrolo[3,2-d]pyrimidin-4-one]",–
98%,96%,91%,"CC(C)OCCn1c(=S)[nH]c(=O)c2c1ccn2S(C)(=O)=O [Example 76, 5-methanesulfonyl-1-[2-(propan-2-yloxy)ethyl]-2-sulfanylidene-1H,2H,3H,4H,5H-pyrrolo[3,2-d]pyrimidin-4-one]",–
98%,99%,96%,"CCS(=O)(=O)n1ccc2c1c(=O)[nH]c(=S)n2CCOC(C)C [Example 77, 5-(ethanesulfonyl)-1-[2-(propan-2-yloxy)ethyl]-2-sulfanylidene-1H,2H,3H,4H,5H-pyrrolo[3,2-d]pyrimidin-4-one]",–
96%,100%,80%,"CC(C)OCCn1c(=S)[nH]c(=O)c2c1ccn2S(=O)(=O)c1ccccc1 [Example 78, 5-(benzenesulfonyl)-1-[2-(propan-2-yloxy)ethyl]-2-sulfanylidene-1H,2H,3H,4H,5H-pyrrolo[3,2-d]pyrimidin-4-one]",–
98%,92%,82%,"CC(C)OCCn1c(=S)[nH]c(=O)c2c1ccn2S(=O)(=O)c1ccccc1F [Example 79, 5-(2-fluorobenzenesulfonyl)-1-[2-(propan-2-yloxy)ethyl]-2-sulfanylidene-1H,2H,3H,4H,5H-pyrrolo[3,2-d]pyrimidin-4-one]",–
99%,90%,87%,"Cc1ccccc1S(=O)(=O)n1ccc2c1c(=O)[nH]c(=S)n2CCOC(C)C [Example 80, 5-(2-methylbenzenesulfonyl)-1-[2-(propan-2-yloxy)ethyl]-2-sulfanylidene-1H,2H,3H,4H,5H-pyrrolo[3,2-d]pyrimidin-4-one]",–
1%,74%,56%,"CC(C)OCCn1c(=S)[nH]c(=O)c2c1ccn2COC(=O)CCCCCCC(=O)OCCl [Example 137, 1-Chloromethyl 8-{4-oxo-1-[2-(propan-2-yloxy)ethyl]-2-sulfanylidene-1H,2H,3H,4H,5H-pyrrolo[3,2-d]pyrimidin-5-yl}methyl octanedioate]",–
